Assay results: ChEMBL document CHEMBL6087389, “Hydrazone-Functionalized trans-A2B-Corroles: Effective Synergy in Photodynamic Therapy of Lung Cancer” (J Med Chem, 2024)
Active and inactive are the calls of the source. The rule behind the calls is not given here.

Experiments:
[1] = Fluorescence property of the compound in THF assessed as fluorescence quantum yield by photoluminescence quantum yield spectrometer; type: physicochemical
[2] = Fluorescence property of the compound in DMSO assessed as fluorescence quantum yield by photoluminescence quantum yield spectrometer; type: physicochemical
[3] = Induction of singlet oxygen generation in THF assessed as singlet oxygen quantum yield by comparative photoluminescence method; type: functional
[4] = Phototoxicity against human A549 cells assessed as reduction in cell viability preincubated for 24 hrs followed by 7.5 to 10 mW/cm^-2 red light irradiation and measured after 24 hrs by MTT assay; type: functional, cell-based; details: A549, light or radiation study
[5] = Phototoxicity against human NCI-H1299 cells assessed as reduction in cell viability preincubated for 24 hrs followed by 7.5 to 10 mW/cm^-2 red light irradiation and measured after 24 hrs by MTT assay; type: functional, cell-based; details: NCI-H1299, light or radiation study
A549 [6] = experiment: Dark toxicity against human A549 cells assessed as reduction in metabolic activity at <1 uM incubated for 4 hrs by MTT assay; type: cell-based; details: a549, 4 h
NCI-H1299 [7] = experiment: Dark toxicity against human NCI-H1299 cells assessed as reduction in metabolic activity at <1 uM incubated for 4 hrs by MTT assay; type: cell-based; details: nci-h1299, 4 h
A549 [8] = experiment: Dark toxicity against human A549 cells assessed as reduction in metabolic activity at 10 uM incubated for 4 hrs by MTT assay; type: cell-based; details: a549, 4 h
NCI-H1299 [9] = experiment: Dark toxicity against human NCI-H1299 cells assessed as reduction in metabolic activity at 10 uM incubated for 4 hrs by MTT assay; type: cell-based; design: scale not given: the % may be the effect or the level left; details: nci-h1299, 4 h
A549 [10] = experiment: Reduction in hydrogen peroxide production in human A549 cells irradiated with 7.5 to 10 mW/cm^-2 red light for 24 hrs at 100 to 250 nM measured after 2 hrs by DHE and DCFH2-DA staining based fluorimetric analysis; type: functional, cell-based; details: dose 100-250 nM
NCI-H1299 [11] = experiment: Reduction in hydrogen peroxide production in human NCI-H1299 cells irradiated with 7.5 to 10 mW/cm^-2 red light for 24 hrs at 0 to 250 nM incubated for 2 hrs by DHE and DCFH2-DA staining based fluorimetric analysis; type: functional, cell-based; details: dose 0-250 nM
NCI-H1299 [12] = experiment: Induction of superoxide anion production in human NCI-H1299 cells irradiated with 7.5 to 10 mW/cm^-2 red light for 24 hrs at 100 to 250 nM incubated for 2 hrs by DHE and DCFH2-DA staining based fluorimetric analysis; type: functional, cell-based; details: dose 100-250 nM
A549 [13] = experiment: Induction of superoxide anion production in human A549 cells irradiated with 7.5 to 10 mW/cm^-2 red light for 24 hrs at 100 to 250 nM incubated for 2 hrs by DHE and DCFH2-DA staining based fluorimetric analysis; type: functional, cell-based; details: dose 100-250 nM
A549 [14] = experiment: Induction of apoptosis in human A549 cells assessed as reduction in viable cells at 500 nM preincubated for 24 hrs followed by irradiated with 7.5 to 10 mW/cm^-2 red light for 24 hrs by Annexin V and propidium iodide staining based flow cytometry relative to control; type: functional; details: time 48 hrs
A549 [15] = experiment: Induction of apoptosis in human A549 cells assessed as reduction in viable cells at 100 nM preincubated for 24 hrs followed by irradiated with 7.5 to 10 mW/cm^-2 red light for 24 hrs by Annexin V and propidium iodide staining based flow cytometry relative to control; type: functional; details: time 48 hrs
A549 [16] = experiment: Induction of apoptosis in human A549 cells assessed as increase in apoptotic cells at 100 nM preincubated for 24 hrs followed by irradiated with 7.5 to 10 mW/cm^-2 red light for 24 hrs by Annexin V and propidium iodide staining based flow cytometry relative to control; type: functional; details: time 48 hrs
A549 [17] = experiment: Induction of apoptosis in human A549 cells assessed as increase in apoptotic cells at 500 nM preincubated for 24 hrs followed by irradiated with 7.5 to 10 mW/cm^-2 red light for 24 hrs by Annexin V and propidium iodide staining based flow cytometry relative to control; type: functional; details: time 48 hrs
A549 [18] = experiment: Induction of apoptosis in human A549 cells assessed as late apoptotic cells at 100 nM preincubated for 24 hrs followed by irradiated with 7.5 to 10 mW/cm^-2 red light for 24 hrs by Annexin V and propidium iodide staining based flow cytometry relative to control; type: functional; details: time 48 hrs
A549 [19] = experiment: Induction of apoptosis in human A549 cells assessed as late apoptotic cells at 500 nM preincubated for 24 hrs followed by irradiated with 7.5 to 10 mW/cm^-2 red light for 24 hrs by Annexin V and propidium iodide staining based flow cytometry relative to control; type: functional; details: time 48 hrs
A549 [20] = experiment: Induction of apoptosis in human A549 cells assessed as necrotic cells at 100 nM preincubated for 24 hrs followed by irradiated with 7.5 to 10 mW/cm^-2 red light for 24 hrs by Annexin V and propidium iodide staining based flow cytometry relative to control; type: functional; details: time 48 hrs
A549 [21] = experiment: Induction of apoptosis in human A549 cells assessed as necrotic cells at 500 nM preincubated for 24 hrs followed by irradiated with 7.5 to 10 mW/cm^-2 red light for 24 hrs by Annexin V and propidium iodide staining based flow cytometry relative to control; type: functional; details: time 48 hrs
A549 [22] = experiment: Photocytotoxicity in human A549 cells assessed as metabolic activity in presence of sodium azide measured preincubated for 24 hrs followed by irradiated with 7.5 to 10 mW/cm^-2 red light for 24 hrs by MTT assay; type: functional, cell-based; details: A549, light or radiation study
NCI-H1299 [23] = experiment: Induction of apoptosis in human NCI-H1299 cells assessed as reduction in viability at 100 to 500 nM preincubated for 24 hrs followed by irradiated with 7.5 to 10 mW/cm^-2 red light for 24 hrs by Annexin V and propidium iodide staining based flow cytometry relative to control; type: functional; details: dose 100-500 nM, time 48 hrs
NCI-H1299 [24] = experiment: Induction of apoptosis in human NCI-H1299 cells assessed as late apoptotic/necrotic cells at 100 nM preincubated for 24 hrs followed by irradiated with 7.5 to 10 mW/cm^-2 red light for 24 hrs by Annexin V and propidium iodide staining based flow cytometry relative to control; type: functional; details: time 48 hrs
NCI-H1299 [25] = experiment: Induction of apoptosis in human NCI-H1299 cells assessed as late apoptotic/necrotic cells at 500 nM preincubated for 24 hrs followed by irradiated with 7.5 to 10 mW/cm^-2 red light for 24 hrs by Annexin V and propidium iodide staining based flow cytometry relative to control; type: functional; details: time 48 hrs
NCI-H1299 [26] = experiment: Induction of apoptosis in human NCI-H1299 cells assessed as early apoptotic cells at 100 nM preincubated for 24 hrs followed by irradiated with 7.5 to 10 mW/cm^-2 red light for 24 hrs by Annexin V and propidium iodide staining based flow cytometry relative to control; type: functional; details: time 48 hrs
NCI-H1299 [27] = experiment: Induction of apoptosis in human NCI-H1299 cells assessed as early apoptotic cells at 500 nM preincubated for 24 hrs followed by irradiated with 7.5 to 10 mW/cm^-2 red light for 24 hrs by Annexin V and propidium iodide staining based flow cytometry relative to control; type: functional; details: time 48 hrs
NCI-H1299 [28] = experiment: Induction of apoptosis in human NCI-H1299 cells assessed as appearance of necrosis at 100 to 250 nM preincubated for 24 hrs followed by irradiated with 7.5 to 10 mW/cm^-2 red light for 24 hr by May-Grunwald/Giemsa staining by light microscopic analysis; type: functional, cell-based; details: dose 100-250 nM, time 48.0 hrs
Mitochondrial membrane [29] = experiment: Induction of mitochondrial membrane depolarization in human A549 cells assessed as increase in monomer to aggregate ratio at 100 nM preincubated for 15 mins irradiated with 7.5 to 10 mW/cm^-2 red light by JC-1 fluorescent probe based flow cytometric analysis (reference value: 24.7+/-6.9); type: cell membranes
Mitochondrial membrane [30] = experiment: Induction of mitochondrial membrane depolarization in human A549 cells assessed as increase in monomer to aggregate ratio at 250 nM preincubated for 15 mins irradiated with 7.5 to 10 mW/cm^-2 red light by JC-1 fluorescent probe based flow cytometric analysis (reference value: 24.7+/-6.9); type: cell membranes
Mitochondrial membrane [31] = experiment: Induction of mitochondrial membrane depolarization in human NCI-H1299 cells assessed as increase in monomer to aggregate ratio at 100 nM preincubated for 15 mins irradiated with 7.5 to 10 mW/cm^-2 red light by JC-1 fluorescent probe based flow cytometric analysis (reference value: 1.0+/-0.00); type: cell membranes
Mitochondrial membrane [32] = experiment: Induction of mitochondrial membrane depolarization in human NCI-H1299 cells assessed as increase in monomer to aggregate ratio at 250 nM preincubated for 15 mins irradiated with 7.5 to 10 mW/cm^-2 red light by JC-1 fluorescent probe based flow cytometric analysis (reference value: 1.0+/-0.00); type: cell membranes
A549 [33] = experiment: Induction of apoptosis in human A549 cells assessed as early apoptotic cells at 100 to 500 nM preincubated for 24 hrs followed by irradiated with 7.5 to 10 mW/cm^-2 red light for 24 hrs by Annexin V and propidium iodide staining based flow cytometry relative to control; type: functional; details: dose 100-500 nM, time 48 hrs
A549 [34] = experiment: Induction of apoptosis in human A549 cells assessed as late apoptotic/necrotic cells at 100 to 500 nM preincubated for 24 hrs followed by irradiated with 7.5 to 10 mW/cm^-2 red light for 24 hrs by Annexin V and propidium iodide staining based flow cytometry relative to control; type: functional; details: dose 100-500 nM, time 48 hrs
A549 [35] = experiment: Induction of apoptosis in human A549 cells assessed as viable cells at 500 nM preincubated for 24 hrs followed by irradiated with 7.5 to 10 mW/cm^-2 red light for 24 hrs by Annexin V and propidium iodide staining based flow cytometry relative to control; type: functional; details: A549, light or radiation study, time 48 hrs, read-out: Activity
A549 [36] = experiment: Induction of apoptosis in human A549 cells assessed as late apoptotic/necrotic cells at 500 nM preincubated for 24 hrs followed by irradiated with 7.5 to 10 mW/cm^-2 red light for 24 hrs by Annexin V and propidium iodide staining based flow cytometry relative to control; type: functional; details: time 48 hrs

| SMILES | Activity [1] | Activity [2] | Activity [3] | IC50 [4] | IC50 [5] | Activity (A549 [6]) | Activity (NCI-H1299 [7]) | Activity (A549 [8]) | Activity (NCI-H1299 [9]) | Activity (A549 [15]) | Activity (NCI-H1299 [23]) | Activity (NCI-H1299 [24]) | Activity (NCI-H1299 [25]) | Activity (NCI-H1299 [26]) | Activity (NCI-H1299 [27]) | Activity (NCI-H1299 [28]) | also measured |
| --- | --- | --- | --- | --- | --- | --- | --- | --- | --- | --- | --- | --- | --- | --- | --- | --- | --- |
| C/C(=N/NC(=O)OC(C)(C)C)c1c2nc(c(-c3ccccc3)c3ccc([nH]3)c3ccc([nH]3)c(-c3ccccc3)c3ccc1[nH]3)C=C2 | 0.14 | 0.267 | 0.39 | 94.9 nM | 25 nM | Non-toxic | Non-toxic | Non-toxic | Non-toxic | 20.8% | >=75% | 57.9% | 28.8% | 20.1% | 69% | Active | Activity (A549 [10]): Active; Activity (NCI-H1299 [11]): Active; Activity (NCI-H1299 [12]): Active; Activity (A549 [13]): Active; Activity (A549 [14]): 18%; Activity (A549 [16]): 21%; Activity (A549 [17]): 17.5%; Activity (A549 [18]): 35.5%; Activity (A549 [19]): 38%; Activity (A549 [20]): 22.8%; Activity (A549 [21]): 26.5%; IC50 (A549 [22]): 373 nM; Activity (Mitochondrial membrane [29]): 39.7; Activity (Mitochondrial membrane [30]): 47.7; Activity (Mitochondrial membrane [31]): 1.7; Activity (Mitochondrial membrane [32]): 4 |
| C/C(=N\NS(=O)(=O)c1ccc(C)cc1)c1c2nc(c(-c3ccccc3)c3ccc([nH]3)c3ccc([nH]3)c(-c3ccccc3)c3ccc1[nH]3)C=C2 | 0.114 | 0.282 | 0.26 | 101 nM | 52.3 nM | Non-toxic | Non-toxic | Non-toxic | 73.8% | 48% | >=75% | 23.2% | 75.5% | 12.7% | 19.8% | Active | Activity (A549 [33]): 16.9%; Activity (A549 [34]): 24.6%; viability at 0.5 µM (A549 [35]): 2%; Activity (A549 [36]): 92.7% |
